≈ marks a conversion by molar mass, not a printed value. Calls of active or inactive are those of the source. No cut-off for these calls is given here.
Tests used:
[1] = tested on: LoVo; test: Cytotoxicity against human LoVo cells in presence of beta-glucuronidase; format: functional, cell-based
[2] = Aqueous solubility of the compound; format: physicochemical; settings: aqueous solution
[3] = tested on: HT-29; test: Cytotoxicity against human HT29 cells; format: functional, cell-based
[4] = tested on: MCF7; test: Cytotoxicity against ERalpha positive human MCF7 cells; format: functional, cell-based
[5] = tested on: M19 melanoma cell line (human); test: Cytotoxicity against human M19 melanoma cells
[6] = organism: Mus musculus; test: Survival of p388 tumor bearing mouse after 30 days; format: functional, organism-based
[7] = tested on: OVCAR-3; test: Cytotoxicity against human OVCAR-3 cells in presence of beta-glucuronidase; format: functional, cell-based
[8] = tested on: MDA-MB-231; test: Cytotoxicity against ERalpha negative human MDA-MB-231 cells; format: functional, cell-based
[9] = tested on: OVCAR-3; test: Cytotoxicity against human OVCAR-3 cells; format: functional, cell-based
[10] = tested on: PC-3; test: Cytotoxicity against ERbeta positive human PC3 cells; format: functional, cell-based
[11] = tested on: A2780; test: Cytotoxicity against ERbeta negative human A2780 cells; format: functional, cell-based
[12] = Cytotoxicity against human IGROV cells; format: functional, cell-based
[13] = Half life in presence of 10 uM beta-glucuronidase assessed as taxol release at 100 uM; format: ADME
[14] = Half life in presence of 50 ug/mL beta-glucuronidase assessed as taxol release; format: ADME
[15] = Half life in presence of 30 ug/mL beta-glucuronidase assessed as taxol release at 30 ug/mL; format: ADME
[16] = tested on: LoVo; test: Ratio of IC50 of drug for human LoVo cells to IC50 of taxol for human LoVo cells; format: functional
[17] = tested on: MCF-7 (Homo sapiens); test: Ratio of IC50 for ERalpha positive human MCF-7 cells to IC50 for ERalpha negative human MDA-MB-231 cells
[18] = tested on: EVSA-T; test: Cytotoxicity against human EVSA-T cells; format: functional, cell-based
[19] = tested on: MCF7; test: Cytotoxicity against human MCF7 cells; format: functional, cell-based
[20] = Half life in DTT buffer assessed as taxol release; format: ADME
[21] = tested on: Mus musculus; test: Reduction of body weight in human L2987 xenografted athymic mouse at 125 mg/kg; format: functional; set-up: scale not given: the % may be the effect or the level left

CC(=O)O[C@H]1C(=O)[C@@]2(C)[C@H]([C@H](OC(=O)c3ccccc3)[C@]3(O)C[C@H](OC(=O)[C@H](O)[C@@H](NC(=O)c4ccccc4)c4ccccc4)C(C)=C1C3(C)C)[C@]1(OC(C)=O)CO[C@@H]1C[C@@H]2O [PACLITAXEL]
IC50 [1]: 90 nM | solubility [2]: 10 µg/mL (≈ 11.7 µM) | IC50 [3]: 0.03 µg/mL (≈ 0.0351 µM) | EC50 ([4]; read-out: ED50 (the source's name)): 0.05 µg/mL (≈ 0.0586 µM) | IC50 [5]: < 0.003 µg/mL | Activity [6]: Toxic | Activity [7]: inactive | IC50 [8]: 4.5 nM | IC50 [9]: 0.2 nM | IC50 [10]: 77 nM | IC50 [11]: 25 nM | IC50 [12]: 0.01 µg/mL (≈ 0.0117 µM)

CC(=O)O[C@H]1C(=O)[C@@]2(C)[C@H]([C@H](OC(=O)c3ccccc3)[C@]3(O)C[C@H](OC(=O)[C@H](OC(=O)CCc4ccc(NC(=O)O[C@@H]5O[C@H](C(=O)[O-])[C@@H](O)[C@H](O)[C@H]5O)cc4)[C@@H](NC(=O)c4ccccc4)c4ccccc4)C(C)=C1C3(C)C)[C@]1(OC(C)=O)CO[C@@H]1C[C@@H]2O.[Na+]
t1/2 [13]: 45 min | IC50 [7]: 1.1 nM | IC50 [9]: 27 nM

CC(=O)O[C@H]1C(=O)[C@@]2(C)[C@H]([C@H](OC(=O)c3ccccc3)[C@]3(O)C[C@H](OC(=O)[C@H](OC(=O)N(C)CCN(C)C(=O)OCc4ccc(O)c(N)c4)[C@@H](NC(=O)c4ccccc4)c4ccccc4)C(C)=C1C3(C)C)[C@]1(OC(C)=O)CO[C@@H]1C[C@@H]2O
t1/2 [14]: 13 min

CC(=O)O[C@H]1C(=O)[C@@]2(C)[C@H]([C@H](OC(=O)c3ccccc3)[C@]3(O)C[C@H](OC(=O)[C@H](OC(=O)CCC(=O)O[C@@H]4C[C@]5(C)[C@@H](O)CC[C@H]5[C@@H]5CCc6cc(O)ccc6[C@H]54)[C@@H](NC(=O)c4ccccc4)c4ccccc4)C(C)=C1C3(C)C)[C@]1(OC(C)=O)CO[C@@H]1C[C@@H]2O
IC50 [4]: 62 nM | IC50 [8]: 51 nM | IC50 [10]: 40 nM | IC50 [11]: 680 nM

CC(=O)O[C@H]1C(=O)[C@@]2(C)[C@H]([C@H](OC(=O)c3ccccc3)[C@]3(O)C[C@H](OC(=O)[C@H](OC(=O)N(C)CCN(C)C(=O)OCc4ccc(O[C@@H]5O[C@H](C(=O)O)[C@@H](O)[C@H](O)[C@H]5O)c(N)c4)[C@@H](NC(=O)OC(C)(C)C)c4ccccc4)C(C)=C1C3(C)C)[C@]1(OC(C)=O)CO[C@@H]1C[C@@H]2O
t1/2 [15]: 10 min | Activity [1]: inactive | Ratio IC50 [16]: 187

CC(=O)O[C@H]1C(=O)[C@@]2(C)[C@H]([C@H](OC(=O)c3ccccc3)[C@]3(O)C[C@H](OC(=O)[C@@H](OC(=O)CCC(=O)O[C@@H]4C[C@]5(C)[C@@H](O)CC[C@H]5[C@@H]5CCc6cc(O)ccc6[C@H]54)[C@@H](NC(=O)c4ccccc4)c4ccccc4)C(C)=C1C3(C)C)[C@]1(OC(C)=O)CO[C@@H]1C[C@@H]2O
Ratio IC50 [17]: 3 | IC50 [4]: 103 nM | IC50 [8]: 304 nM | IC50 [10]: 68 nM | IC50 [11]: 1900 nM

CC(=O)O[C@H]1C(=O)[C@]2(C)[C@@H](OC(=O)C[C@H](O)C(=O)O)C[C@H]3OC[C@@]3(OC(C)=O)[C@H]2[C@H](OC(=O)c2ccccc2)[C@]2(O)C[C@H](OC(=O)[C@H](OC(=O)C[C@H](O)C(=O)O)[C@@H](NC(=O)c3ccccc3)c3ccccc3)C(C)=C1C2(C)C
IC50 [18]: 0.059 µg/mL (≈ 0.0543 µM) | solubility [2]: 500 µg/mL (≈ 460 µM) | IC50 [19]: 0.069 µg/mL (≈ 0.0635 µM)

CC(=O)O[C@H]1C(=O)[C@@]2(C)[C@H]([C@H](OC(=O)c3ccccc3)[C@]3(O)C[C@H](OC(=O)[C@H](OC(=O)C(C)(C)CCSSC[C@H](C)C(=O)N4CCC[C@@H]4C(=O)O)[C@@H](NC(=O)c4ccccc4)c4ccccc4)C(C)=C1C3(C)C)[C@]1(OC(C)=O)CO[C@@H]1C[C@@H]2O
t1/2 [20]: 25 min | Activity [21]: 10%

CC(=O)O[C@H]1C(=O)[C@@]2(C)[C@H]([C@H](OC(=O)c3ccccc3)[C@]3(O)C[C@H](OC(=O)C(OC(=O)N(C)CCN(C)C(=O)OCc4ccc(O[C@@H]5O[C@H](C(=O)O)[C@@H](O)[C@H](O)[C@H]5O)c(N)c4)[C@@H](NC(=O)c4ccccc4)c4ccccc4)C(C)=C1C3(C)C)[C@]1(OC(C)=O)CO[C@@H]1C[C@@H]2O (stereo partly specified)
t1/2 [15]: 10 min | Activity [1]: inactive | Ratio IC50 [16]: 153

CC(=O)O[C@H]1C(=O)[C@@]2(C)[C@H]([C@H](OC(=O)c3ccccc3)[C@]3(O)C[C@H](OC(=O)[C@H](OC(=O)/C=C/C[C@@H]4C[C@H]5[C@@H]6CCc7cc(O)ccc7[C@H]6CC[C@]5(C)[C@H]4O)[C@@H](NC(=O)c4ccccc4)c4ccccc4)C(C)=C1C3(C)C)[C@]1(OC(C)=O)CO[C@@H]1C[C@@H]2O
IC50 [4]: 39 nM | IC50 [8]: 22 nM | IC50 [10]: 73 nM | IC50 [11]: 180 nM

CC(=O)O[C@H]1C(=O)[C@@]2(C)[C@H]([C@H](OC(=O)c3ccccc3)[C@]3(O)C[C@H](OC(=O)[C@H](OC(=O)C(C)(C)CCSSc4ccccn4)[C@@H](NC(=O)c4ccccc4)c4ccccc4)C(C)=C1C3(C)C)[C@]1(OC(C)=O)CO[C@@H]1C[C@@H]2O
t1/2 [20]: 4 min

Reference: ChEMBL document CHEMBL1140624, “Improved biochemical strategies for targeted delivery of taxoids” (Bioorg Med Chem, 2007)
